Assay type in all cases: biochemical
One assay deals with T1, 12-lipoxygenase (Homo sapiens, UniProt P18054).
T1 construct: 12-lipoxygenase obtained from human platelets; from tissue; host or cells: human platelets
T1 sequence (P18054 1-663): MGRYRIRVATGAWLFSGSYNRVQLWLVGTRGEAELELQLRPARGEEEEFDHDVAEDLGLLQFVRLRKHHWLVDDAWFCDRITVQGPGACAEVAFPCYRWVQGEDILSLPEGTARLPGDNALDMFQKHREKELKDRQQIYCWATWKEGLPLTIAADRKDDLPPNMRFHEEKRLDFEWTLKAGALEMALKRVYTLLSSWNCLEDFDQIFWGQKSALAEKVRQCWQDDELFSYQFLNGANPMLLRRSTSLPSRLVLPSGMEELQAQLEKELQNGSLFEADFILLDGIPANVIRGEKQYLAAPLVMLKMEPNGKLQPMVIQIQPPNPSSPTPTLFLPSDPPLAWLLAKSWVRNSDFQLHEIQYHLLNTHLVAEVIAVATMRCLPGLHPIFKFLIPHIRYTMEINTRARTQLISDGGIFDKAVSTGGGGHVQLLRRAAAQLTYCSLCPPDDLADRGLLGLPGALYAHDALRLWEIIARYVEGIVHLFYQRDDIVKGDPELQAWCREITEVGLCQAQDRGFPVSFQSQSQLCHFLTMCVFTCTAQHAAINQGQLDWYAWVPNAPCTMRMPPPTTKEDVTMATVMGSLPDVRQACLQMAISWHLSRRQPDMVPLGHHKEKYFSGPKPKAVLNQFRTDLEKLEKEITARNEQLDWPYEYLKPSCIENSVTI
The experiment in a line: 12-lipoxygenase inhibition (12-lipoxygenase obtained from human platelets). The conditions noted are these: for inhibition at 10 µM: read-out: % Inhibition at Indicated Concentration, 12-lipoxygenase, 10 μM; for inhibition at 100 µM: read-out: % Inhibition at Indicated Concentration, 12-lipoxygenase, 100 μM. Here is the method:
(§1) The compounds of this invention are potent inhibitors of 5-, 12- and 15-lipoxygenase. An assay to determine 5-lipoxygenase activity was performed in incubations containing various concentrations of the test compound and the 20,000×G supernatant from 7.5×10^6 homogenized RBL-1 cells. Reactions were initiated by the addition of radiolabeled arachidonic acid and terminated by acidification and ether extraction. Reaction products were separated from nonconverted substrate by thin layer chromatography and measured by liquid scintillatiton spectroscopy. Inhibition of 5-lipoxygenase activity was calculated as the ratio of the amounts of product formed in the presence and absence of inhibitor.
(§2) The inhibitory activities of the compounds of this invention against 12- and 15-lipoxygenase can be determined in the foregoing assay in which 12-lipoxygenase obtained from human platelets, or 15-lipoxygenase obtained from soybean, is substituted for the 5-lipoxygenase-containing cell supernatant fraction.

Another assay addresses T2, 15-lipoxygenase (Glycine max, UniProt P08170).
T2 construct: 15-lipoxygenase obtained from soybean; from tissue; host or cells: soybean
T2 sequence (P08170 1-839): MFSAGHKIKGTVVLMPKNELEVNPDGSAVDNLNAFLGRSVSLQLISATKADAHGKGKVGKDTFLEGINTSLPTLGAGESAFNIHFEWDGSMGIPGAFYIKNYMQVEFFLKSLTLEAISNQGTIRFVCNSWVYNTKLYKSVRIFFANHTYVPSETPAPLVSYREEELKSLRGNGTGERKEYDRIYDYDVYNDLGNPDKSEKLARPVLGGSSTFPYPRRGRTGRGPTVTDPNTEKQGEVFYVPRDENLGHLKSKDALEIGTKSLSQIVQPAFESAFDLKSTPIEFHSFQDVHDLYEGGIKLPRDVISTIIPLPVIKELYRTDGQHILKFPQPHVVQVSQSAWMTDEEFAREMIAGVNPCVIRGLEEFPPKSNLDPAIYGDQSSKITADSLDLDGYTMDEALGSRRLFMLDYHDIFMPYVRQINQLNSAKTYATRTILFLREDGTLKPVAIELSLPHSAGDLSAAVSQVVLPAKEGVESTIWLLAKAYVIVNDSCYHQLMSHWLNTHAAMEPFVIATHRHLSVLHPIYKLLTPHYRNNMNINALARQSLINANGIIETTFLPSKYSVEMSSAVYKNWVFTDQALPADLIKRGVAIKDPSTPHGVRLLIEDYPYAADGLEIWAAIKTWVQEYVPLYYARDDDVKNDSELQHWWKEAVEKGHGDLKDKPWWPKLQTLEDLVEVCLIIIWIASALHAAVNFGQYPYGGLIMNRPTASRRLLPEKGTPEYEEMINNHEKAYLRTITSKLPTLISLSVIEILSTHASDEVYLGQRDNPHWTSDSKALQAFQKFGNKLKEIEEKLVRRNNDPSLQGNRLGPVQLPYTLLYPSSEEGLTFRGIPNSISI
Kind of assay: 15-lipoxygenase inhibition (15-lipoxygenase obtained from soybean). The conditions noted are these: for inhibition at 10 µM: read-out: % Inhibition at Indicated Concentration, 15-lipoxygenase, 10 μM; for inhibition at 100 µM: read-out: % Inhibition at Indicated Concentration, 15-lipoxygenase, 100 μM. Here is the method: as §1, §2

Another assay deals with T3, 5-lipoxygenase (Rattus norvegicus, UniProt P12527).
T3 construct: 20,000×G supernatant from 7.5×10^6 homogenized RBL-1 cells; endogenous in cells; host or cells: RBL-1 cells (20,000xG supernatant of homogenate)
T3 sequence (P12527 1-673): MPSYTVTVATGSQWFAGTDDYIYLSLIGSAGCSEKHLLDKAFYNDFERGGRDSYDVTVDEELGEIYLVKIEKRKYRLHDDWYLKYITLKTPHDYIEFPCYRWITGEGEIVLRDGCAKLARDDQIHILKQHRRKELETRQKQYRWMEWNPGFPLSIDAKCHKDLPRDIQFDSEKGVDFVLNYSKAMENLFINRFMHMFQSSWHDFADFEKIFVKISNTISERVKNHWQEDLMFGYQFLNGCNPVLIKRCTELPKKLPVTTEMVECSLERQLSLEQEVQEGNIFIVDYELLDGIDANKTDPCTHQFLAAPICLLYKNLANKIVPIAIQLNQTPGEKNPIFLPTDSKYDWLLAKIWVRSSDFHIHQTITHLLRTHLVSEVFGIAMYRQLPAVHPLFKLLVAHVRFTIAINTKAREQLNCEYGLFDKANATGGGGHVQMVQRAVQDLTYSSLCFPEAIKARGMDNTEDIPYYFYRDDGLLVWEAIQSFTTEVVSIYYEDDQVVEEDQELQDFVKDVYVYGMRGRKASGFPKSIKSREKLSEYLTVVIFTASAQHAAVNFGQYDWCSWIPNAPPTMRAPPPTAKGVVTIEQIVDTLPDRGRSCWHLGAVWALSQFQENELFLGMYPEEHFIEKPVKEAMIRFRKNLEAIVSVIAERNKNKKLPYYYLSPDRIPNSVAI
The experiment in a line: 5-Lipoxygenase IC50 determination (20,000×G supernatant of homogenized RBL-1 cells, radiolabeled arachidonic acid). The conditions noted are these: RBL-1 cell 20,000×G supernatant. Here is the method:
Reactions were initiated by the addition of radiolabeled arachidonic acid and terminated by acidification and ether extraction. Reaction products were separated from nonconverted substrate by thin layer chromatography and measured by liquid scintillatiton spectroscopy. Inhibition of 5-lipoxygenase activity was calculated as the ratio of the amounts of product formed in the presence and absence of inhibitor. […]

Regarding `O=C(C=Cc1ccc2ccccc2c1)NO` [Example 1, 3-(2-naphthyl)acrylohydroxamic acid], at 12-lipoxygenase, the inhibition at 10 µM stood at 92% and the inhibition at 100 µM is 100%. At 15-lipoxygenase, the inhibition at 10 µM came out at 2% and the inhibition at 100 µM was 19%.

The compound `CN(O)C(=O)C=Cc1ccc2ccccc2c1` [Example 2, N-methyl 3-(2-naphthyl)acrylohydroxamic acid] yielded an IC50 at 5-lipoxygenase of 260 nM. Also, the inhibition at 10 µM on 12-lipoxygenase worked out at 88%. In addition, on 15-lipoxygenase, the inhibition at 10 µM worked out at 43% and the inhibition at 100 µM turned out to be 83%.

Consider `CC(C)N(O)C(=O)C=Cc1ccc2ccccc2c1` [Example 3, N-isopropyl 3-(2-naphthyl)acrylohydroxamic acid], for which the IC50 at 5-lipoxygenase was 150 nM. Moreover, the inhibition at 10 µM on 12-lipoxygenase was found to be 75%; on 15-lipoxygenase, 31%. The inhibition at 100 µM at 12-lipoxygenase was 84%; at 15-lipoxygenase, 63%.

Consider `O=C(C=Cc1ccc2ccccc2c1)N(O)C1CCCCC1` [Example 4, N-cyclohexyl 3-(2-naphthyl)acrylohydroxamic acid], for which half-maximal inhibition against 5-lipoxygenase (IC50) was put at 260 nM. For the same compound, at 12-lipoxygenase, the inhibition at 10 µM turned out to be 66%. On 15-lipoxygenase, the inhibition at 10 µM is 43% and the inhibition at 100 µM was 83%.

For `O=C(C=Cc1ccc2ccccc2c1)N(O)c1ccccc1` [Example 5, N-phenyl 3-(2-naphthyl)acrylohydroxamic acid], the midpoint of inhibition against 5-lipoxygenase, the IC50, lay at 200 nM. The inhibition at 10 µM at 12-lipoxygenase was 82%. In addition, on 15-lipoxygenase, the inhibition at 10 µM is 22% and the inhibition at 100 µM was 30%.

As for `CC(=Cc1ccc2ccccc2c1)C(=O)NO` [Example 6, 2-methyl-3-(2-naphthyl)acrylohydroxamic acid], at 15-lipoxygenase, the inhibition at 10 µM turned out to be 45% and the inhibition at 100 µM was 100%.

For `CC(=Cc1ccc2ccccc2c1)C(=O)N(C)O` [Example 7, 2,N-dimethyl-3-(2-naphthyl)acrylohydroxamic acid], on 15-lipoxygenase, the inhibition at 10 µM amounted to 37% and the inhibition at 100 µM turned out to be 88%.

For the compound `CN(O)C(=O)C(=Cc1ccc2ccccc2c1)c1ccccc1` [Example 8, N-methyl-3-(2-naphthyl)-2-phenyl acrylohydroxamic acid], at 15-lipoxygenase, the inhibition at 10 µM was determined as 38% and the inhibition at 100 µM came out at 62%.

Regarding `CN(O)C(=O)C(=Cc1ccc2ccccc2c1)c1ccc(Cl)cc1` [Example 10, N-methyl-3-(2-naphthyl)-2-(4-chlorophenyl)acrylohydroxamic acid], the inhibition at 10 µM on 12-lipoxygenase worked out at 98%.

Turning to `CC(=CC(=O)N(C)O)c1ccc2ccccc2c1` [Example 12, 3,N-dimethyl-3-(2-naphthyl)acrylohydroxamic acid], at 15-lipoxygenase, the inhibition at 10 µM amounted to 37% and the inhibition at 100 µM came out at 88%.

For `CN(O)C(=O)C=Cc1cc2ccccc2cc1[N+](=O)[O-]` [Example 13, N-methyl-3-(3-nitro-2-naphthyl)acrylohydroxamic acid], at 12-lipoxygenase, the inhibition at 10 µM is 81% and the inhibition at 100 µM amounted to 97%. For the same compound, on 15-lipoxygenase, the inhibition at 10 µM is 19% and the inhibition at 100 µM came out at 49%.

In turn, `CCCCCC=Cc1ccc2ccc(C=CC(=O)N(C)O)cc2c1` [Example 14, N-methyl-3-[7-(1-heptenyl)-2-naphthyl]acrylohydroxamic acid] showed an IC50 against 5-lipoxygenase of 510 nM. For the same compound, at 12-lipoxygenase, the inhibition at 10 µM was 93% and the inhibition at 100 µM came to 98%. Besides, on 15-lipoxygenase, the inhibition at 10 µM was 59% and the inhibition at 100 µM came out at 65%.

At 5-lipoxygenase, `CN(O)C(=O)C=Cc1cccc2ccccc12` [Example 15, N-methyl-3-(1-naphthyl)acrylohydroxamic acid] gave a concentration for half-maximal inhibition (IC50) of 200 nM. At 12-lipoxygenase, the inhibition at 10 µM is 82% and the inhibition at 100 µM was found to be 100%. At 15-lipoxygenase, the inhibition at 10 µM worked out at 29% and the inhibition at 100 µM turned out to be 88%.

At 5-lipoxygenase, `CN(O)C(=O)C=Cc1ccc([N+](=O)[O-])c2ccccc12` [Example 16, N-methyl-3-(4-nitro-1-naphthyl)acrylohydroxamic acid] had a concentration for half-maximal inhibition (IC50) of 130 nM.

At 5-lipoxygenase, `O=C(CCC/C=C\c1ccc2ccccc2c1)NO` [Example 17, Z-6-(2-naphthyl)hex-5-enohydroxamic acid] returned an IC50 of 1600 nM.

`O=C(CCc1ccc2ccccc2c1)NO` [Example 18, 3-(2-naphthyl)propiohydroxamic acid] returned a half-inhibitory concentration (IC50) against 5-lipoxygenase of 9700 nM. In addition, on 15-lipoxygenase, the inhibition at 10 µM was found to be 12% and the inhibition at 100 µM amounted to 31%.

On 5-lipoxygenase, `Cc1ccc2ccc(CCC(=O)NO)cc2c1` [Example 19, 3-(7-methyl-2-napthalene)propiohydroxamic acid] yielded an IC50 of 2900 nM. Also, on 12-lipoxygenase, the inhibition at 10 µM worked out at 82% and the inhibition at 100 µM worked out at 99%. Moreover, at 15-lipoxygenase, the inhibition at 10 µM worked out at 19% and the inhibition at 100 µM was found to be 33%.

Values taken from US4608390A, “Lipoxygenase inhibiting compounds” (Abbott Laboratories, priority 1985, dated 1986).
